Test results as given in patent publication US9457089B2, “Highly concentrated aqueous protein solution with reduced viscosity” (ADOCIA, priority 2012, dated 2016).
Where a name gives a salt, the structure may show the parent alone.

Key:
[1] = tested on: trastuzumab; assay: Viscosity reduction of highly concentrated trastuzumab solution (cone/plate rheometer); type: physicochemical; settings: trastuzumab 200 mg/ml, 150 mM agent, pH 6.0±0.2, 21° C. (Table III)
Source text: (§1) For this example, three solutions of monoclonal antibodies, i.e. a solution of bevacizumab (an IgG1 sold under the name Avastin® by Genentech/Hoffmann La Roche), a solution of infliximab (an IgG1/κ sold under the name Remicade® by Schering-Plough) and a solution of trastuzumab (an IgG1/κ sold under the name Herceptin® by Genentech), were concentrated by ultrafiltration on Amicon® Ultra-15 centrifuge filtration units with a cutoff threshold of 50 kDa. The protein concentration of each concentrated solution was measured by UV spectroscopy (absorbance at 280 nm) after dilution of the samples.
(§2) The commercial solution of bevacizumab (25 mg/ml) was concentrated to 268 mg/ml. […] Once reconstituted, the infliximab and trastuzumab formulations were concentrated to, respectively, 183 mg/ml and 243 mg/ml.
(§3) The effect of uridine compared with that of arginine and of NaCl on the viscosity of these three highly concentrated therapeutic protein solutions was then evaluated. For this, the viscosity was measured using a cone/plate rheometer (TA Instruments, AR 2000 Ex, geometry or diameter 20 mm, cone of 0.5131°, solvent trap filled with water) at a temperature of 21° C. and in flow sweep mode with shear rates of between 5000 and 50 s^−1 (3 points per decade-steady-state sensing). All the viscosity values are determined at the level of the Newtonian plateau.
(§4) For this example, the “Protein+Urid”, “Protein+Arg” and “Protein+NaCl” formulations were prepared by mixing one of the previously prepared undine, arginine or NaCl solutions, with Milli-Q® water and with one of the previously prepared concentrated protein solutions so as to achieve a final uridine, arginine or NaCl concentration of 150 mmol/l (mM) and a final protein concentration of 220 mg/ml for bevacizumab, 150 mg/ml for infliximab and 200 mg/ml for trastuzumab. The samples thus prepared were stored at ambient temperature and were analyzed using a rheometer within 24 hours of their preparation.
(§5) The “control” solutions are prepared by dilution in Milli-Q® water, so as to achieve a final protein concentration of 220 mg/ml for bevacizumab, 150 mg/ml for infliximab and 200 mg/ml for trastuzumab.
(§6) The pH of these formulations (“Protein+Urid”, “Protein+Arg” and “Protein+NaCl” and “controls”) is the same as that of the commercial formulation of the corresponding therapeutic protein (table II).
(§7) The results of the measurements relating to this second example are given in table III hereinafter in the form of percentages of viscosity reduction relative to the control solution of therapeutic protein alone, at the same protein concentration as the “Protein+Urid”, “Protein+Arg” or “Protein+NaCl” formulations.

[2] = tested on: infliximab; assay: Viscosity reduction of highly concentrated infliximab solution (cone/plate rheometer); type: physicochemical; settings: for % viscosity reduction relative to the control infliximab solution: pH 7.2±0.2
Source text: as §1, §2, §3
The samples thus prepared were stored at ambient temperature and were analyzed using a rheometer within 24 hours of their preparation. […]
as §6, §7
(§8) In this study, the highly concentrated bevacizumab and infliximab solutions used are the same as those which were prepared and used previously. The “Protein+Cyt”, “Protein+Deoxycyt”, “Protein+Urid”, “Protein+Arg”, “Protein+NaCl” and “Protein+ATP” formulations were prepared in the presence of 150 mM of cytidine, of 2′-deoxycytidine, of uridine, of arginine, of NaCl or of sodium salt of adenosine 5′-triphosphate.
(§9) The viscosity of the “Protein+Cyt”, “Protein+Deoxycyt” and “Protein+Urid” formulations was then measured as described in example 2 and compared with that obtained for the “Protein+Arg”, “Protein+NaCl” and “Protein+ATP” formulations. The pH of these formulations is the same as that of the corresponding therapeutic protein formulation, i.e. 6.2±0.2 for bevacizumab and 7.2±0.2 for infliximab.
(§10) The results of the measurements relating to this example are given in tables IV and V hereinafter in the form of percentages of viscosity reduction relative to the control solution of therapeutic protein alone, at the same protein concentration as the “Protein+Cyt”, “Protein+Deoxycyt”, “Protein+Urid”, “Protein+Arg”, “Protein+NaCl” and “Protein+ATP” formulations.
The highly concentrated infliximab solution used is the same as that which was prepared previously. The “Protein+Cyt” and “Protein+Arg” formulations were prepared in the presence of 150 mM of cytidine or of arginine and with infliximab concentrations decreasing from 150 mg/ml to 80 mg/ml.
The pH of these formulations is the same as that of the commercial infliximab formulation, i.e. 7.2±0.2. The viscosity of the formulations thus prepared was measured as described in example 2.
The results of the measurements relating to this example are given in table VI hereinafter in the form of percentages of viscosity reduction relative to the control Infliximab solution.
The highly concentrated infliximab solution used is the same as that which was prepared and used previously. […]

[3] = tested on: bevacizumab; assay: Viscosity reduction of highly concentrated bevacizumab solution (cone/plate rheometer); type: physicochemical; settings: bevacizumab 220 mg/ml, 150 mM agent
Source text: as §1, §2, §3, §4, §5, §6, §7, §8, §9, §10

[4] = cited from earlier work
[5] = Infliximab 105 mg/ml, 50 mM agent, pH 7.2
[6] = Infliximab 105 mg/ml, 150 mM agent, pH 7.2 (Table VII)
[7] = Infliximab 105 mg/ml, 300 mM agent, pH 7.2
[8] = infliximab 80 mg/ml, 150 mM agent
[9] = infliximab 105 mg/ml, 150 mM agent
[10] = infliximab 125 mg/ml, 150 mM agent
[11] = infliximab 140 mg/ml, 150 mM agent
[12] = infliximab 150 mg/ml, 150 mM agent
[13] = infliximab 150 mg/ml, 150 mM agent, pH 7.2±0.2 (Table V)
[14] = infliximab 150 mg/ml, 150 mM agent, pH 7.2±0.2, 21° C. (Table III)

Compound | % viscosity reduction relative to the “protein alone” control [1] | % viscosity reduction relative to the “protein alone” control [2, 5] | % viscosity reduction relative to the “protein alone” control [2, 6] | % viscosity reduction relative to the “protein alone” control [2, 7] | % viscosity reduction relative to the “protein alone” control [2, 13] | % viscosity reduction relative to the “protein alone” control [2, 14] | % viscosity reduction relative to the “protein alone” control ([3]; pH 6.2±0.2 (Table IV)) | % viscosity reduction relative to the “protein alone” control ([3]; pH 6.2±0.2, 21° C. (Table III)) | also measured
Cl.N=C(N)NCCC[C@H](N)C(=O)O [Arg, L-arginine hydrochloride salt] | 48% | 32% | 46% | 58% | 55% | 55% | 46% | 46% | % viscosity reduction relative to the control infliximab solution [2, 8]: 36%; % viscosity reduction relative to the control infliximab solution [2, 9]: 47%; % viscosity reduction relative to the control infliximab solution [2, 10]: 46%; % viscosity reduction relative to the control infliximab solution [2, 11]: 59%; % viscosity reduction relative to the control infliximab solution [2, 12]: 55%
O=c1ccn([C@@H]2O[C@H](CO)[C@@H](O)[C@H]2O)c(=O)[nH]1 [Urid, Uridine] | 35% |  |  |  | 70% | 70% | 64% | 64% | % viscosity reduction relative to the “protein alone” control ([1]; listed as uridine): 35%; % viscosity reduction relative to the “protein alone” control ([2]; infliximab 150 mg/ml, 150 mM agent, pH 7.2±0.2, 21° C. (Table III), listed as uridine): 70%; % viscosity reduction relative to the “protein alone” control ([3]; pH 6.2±0.2, 21° C. (Table III), listed as uridine): 64%
Nc1ccn([C@@H]2O[C@H](CO)[C@@H](O)[C@H]2O)c(=O)n1 [Cyt, Cytidine] |  | 39% | 68% | 72% | 76% |  | 43% |  | % viscosity reduction relative to the control infliximab solution [2, 8]: 58%; % viscosity reduction relative to the control infliximab solution [2, 9]: 68%; % viscosity reduction relative to the control infliximab solution [2, 10]: 69%; % viscosity reduction relative to the control infliximab solution [2, 11]: 77%; % viscosity reduction relative to the control infliximab solution [2, 12]: 76%
Nc1ccn([C@H]2C[C@H](O)[C@@H](CO)O2)c(=O)n1 [Deoxycyt, 2′-Deoxycytidine] |  |  |  |  | 75% |  | 51% |  | 
Nc1ncnc2c1ncn2[C@@H]1O[C@H](COP(=O)(O)OP(=O)(O)OP(=O)(O)O)C(O)C1O (stereo partly drawn) [ATP, Sodium salt of adenosine 5′-triphosphate] |  |  |  |  | 0% |  | −14% |  | effect on the viscosity of infliximab (in words) [2, 12]: does not make it possible to reduce the viscosity; effect on the viscosity of bevacizumab (in words) [3]: does not make it possible to reduce the viscosity; increase of the viscosity of bevacizumab [3]: 14%; effect on the viscosity of bevacizumab (in words) ([3]; listed as sodium salt of adenosine 5′-triphosphate): does not make it possible, a fortiori, to reduce the viscosity
[Cl-].[Na+] [NaCl, Sodium chloride] | 34% | 20% | −6% | −90% | 6% | 6% | 24% | 24% | 
Nc1nc2c(ncn2[C@@H]2O[C@H](CO)[C@@H](O)[C@H]2O)c(=O)[nH]1 [guanosine] |  |  |  |  |  |  |  |  | solubility (in words) [4]: very poor solubility
